From BindingDB's records for doi:10.1016/j.bmcl.2005.01.005 (East China Normal University, 2022)

How the values were obtained:
[1] = target: Potassium voltage-gated channel subfamily H member 2 (Homo sapiens, UniProt Q12809); experiment: Inhibition of hERG expressed in CHO cells Qpatch-clamp electrophysiology assay
[2] = target: Polyketide synthase Pks13 (Mycobacterium tuberculosis (strain ATCC 25618 / H37Rv), UniProt I6X8D2); experiment: Inhibition of Mycobacterium tuberculosis Pks13-TE expressed in Escherichia coli BL21(DE3) pLysS
Polyketide synthase Pks13, sequence (I6X8D2 whole entry): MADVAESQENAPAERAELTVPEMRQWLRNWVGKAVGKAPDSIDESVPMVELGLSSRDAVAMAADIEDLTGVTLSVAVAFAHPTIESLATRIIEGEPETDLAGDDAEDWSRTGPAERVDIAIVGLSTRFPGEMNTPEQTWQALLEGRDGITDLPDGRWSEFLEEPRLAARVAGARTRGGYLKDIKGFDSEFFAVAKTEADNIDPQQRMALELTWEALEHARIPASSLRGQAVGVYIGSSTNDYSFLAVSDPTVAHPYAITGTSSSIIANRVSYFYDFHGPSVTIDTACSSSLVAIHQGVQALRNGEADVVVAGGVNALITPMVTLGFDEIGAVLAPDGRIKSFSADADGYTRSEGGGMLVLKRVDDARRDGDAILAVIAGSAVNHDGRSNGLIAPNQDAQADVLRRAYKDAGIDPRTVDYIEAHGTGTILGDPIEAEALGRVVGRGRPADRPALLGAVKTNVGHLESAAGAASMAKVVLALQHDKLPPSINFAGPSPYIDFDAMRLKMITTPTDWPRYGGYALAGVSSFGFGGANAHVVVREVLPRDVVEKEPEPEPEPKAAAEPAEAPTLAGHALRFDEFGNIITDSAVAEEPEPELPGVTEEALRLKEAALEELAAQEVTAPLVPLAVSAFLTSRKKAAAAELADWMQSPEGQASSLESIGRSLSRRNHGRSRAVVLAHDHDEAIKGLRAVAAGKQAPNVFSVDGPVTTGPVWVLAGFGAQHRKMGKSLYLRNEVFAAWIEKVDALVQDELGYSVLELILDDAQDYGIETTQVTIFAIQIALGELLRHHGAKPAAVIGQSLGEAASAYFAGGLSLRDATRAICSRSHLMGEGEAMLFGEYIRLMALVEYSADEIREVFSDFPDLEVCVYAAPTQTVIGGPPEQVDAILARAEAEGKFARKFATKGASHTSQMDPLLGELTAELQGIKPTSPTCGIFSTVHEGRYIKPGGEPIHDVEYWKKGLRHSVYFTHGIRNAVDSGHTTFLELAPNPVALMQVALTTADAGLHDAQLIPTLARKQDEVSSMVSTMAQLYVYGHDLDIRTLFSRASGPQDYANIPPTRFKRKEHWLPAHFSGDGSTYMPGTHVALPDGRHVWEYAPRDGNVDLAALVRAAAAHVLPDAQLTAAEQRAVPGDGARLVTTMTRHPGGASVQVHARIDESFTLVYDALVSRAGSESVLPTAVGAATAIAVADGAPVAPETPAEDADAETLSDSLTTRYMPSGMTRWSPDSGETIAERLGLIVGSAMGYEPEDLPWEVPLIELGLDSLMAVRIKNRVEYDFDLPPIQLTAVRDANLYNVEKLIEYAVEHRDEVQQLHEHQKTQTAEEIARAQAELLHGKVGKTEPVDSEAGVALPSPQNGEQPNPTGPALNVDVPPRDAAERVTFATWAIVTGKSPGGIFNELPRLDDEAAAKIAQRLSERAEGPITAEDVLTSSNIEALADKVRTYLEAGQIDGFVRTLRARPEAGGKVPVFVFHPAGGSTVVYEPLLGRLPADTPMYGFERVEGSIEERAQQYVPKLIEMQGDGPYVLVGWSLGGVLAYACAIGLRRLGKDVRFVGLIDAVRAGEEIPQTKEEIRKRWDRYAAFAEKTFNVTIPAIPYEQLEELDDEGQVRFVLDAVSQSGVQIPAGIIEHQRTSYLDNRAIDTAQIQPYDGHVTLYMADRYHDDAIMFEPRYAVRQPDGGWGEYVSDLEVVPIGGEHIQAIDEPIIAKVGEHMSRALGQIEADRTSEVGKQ

Potassium voltage-gated channel subfamily H member 2, sequence (Q12809 whole entry): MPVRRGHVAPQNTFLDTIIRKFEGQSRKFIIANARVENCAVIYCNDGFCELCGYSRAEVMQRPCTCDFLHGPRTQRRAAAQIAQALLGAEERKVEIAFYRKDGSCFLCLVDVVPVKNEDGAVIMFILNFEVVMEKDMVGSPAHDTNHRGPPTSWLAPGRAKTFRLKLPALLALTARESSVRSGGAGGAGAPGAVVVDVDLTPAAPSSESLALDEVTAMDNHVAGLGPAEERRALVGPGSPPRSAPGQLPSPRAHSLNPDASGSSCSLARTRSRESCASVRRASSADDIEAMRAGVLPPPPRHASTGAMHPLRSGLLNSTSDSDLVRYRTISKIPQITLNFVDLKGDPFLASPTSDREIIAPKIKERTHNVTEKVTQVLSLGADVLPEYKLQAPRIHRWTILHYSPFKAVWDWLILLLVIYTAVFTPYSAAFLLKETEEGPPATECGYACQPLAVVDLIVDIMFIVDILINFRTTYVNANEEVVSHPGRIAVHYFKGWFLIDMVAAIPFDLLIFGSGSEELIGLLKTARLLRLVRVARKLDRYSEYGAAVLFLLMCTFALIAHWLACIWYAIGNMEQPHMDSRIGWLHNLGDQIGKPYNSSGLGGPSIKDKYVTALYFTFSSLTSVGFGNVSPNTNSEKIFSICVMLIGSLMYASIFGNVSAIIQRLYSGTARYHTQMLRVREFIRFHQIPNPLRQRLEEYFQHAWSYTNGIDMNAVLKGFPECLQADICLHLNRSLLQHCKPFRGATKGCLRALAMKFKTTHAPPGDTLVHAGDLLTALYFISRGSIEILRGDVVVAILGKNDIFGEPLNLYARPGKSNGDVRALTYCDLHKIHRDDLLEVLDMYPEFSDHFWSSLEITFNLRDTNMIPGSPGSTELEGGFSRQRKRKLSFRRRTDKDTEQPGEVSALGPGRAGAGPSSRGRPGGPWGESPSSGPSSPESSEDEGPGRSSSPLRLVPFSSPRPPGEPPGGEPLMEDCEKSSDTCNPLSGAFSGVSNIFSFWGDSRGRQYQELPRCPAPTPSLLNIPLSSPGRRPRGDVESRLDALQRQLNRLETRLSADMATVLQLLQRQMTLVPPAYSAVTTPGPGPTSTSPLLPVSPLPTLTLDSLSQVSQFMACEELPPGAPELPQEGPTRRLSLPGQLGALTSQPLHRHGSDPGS

O=c1oc2cc(O)ccc2c2oc3ccc(O)c(CN4CCCCC4)c3c12
IC50 [1]: > 30000 nM

O=c1oc2cc(O)ccc2c2oc3ccc(O)c(CN4CCC(F)CC4)c3c12
IC50 [2]: 1550 nM

O=c1oc2cc(O)ccc2c2oc3ccc4c(c3c12)CN(C1CCCC1)CO4
IC50 [2]: 1300 nM | IC50 [1]: 520 nM
